Results taken from patent publication US9637483B2, “Heterocyclic compound” (TAKEDA PHARMACEUTICAL COMPANY LIMITED, priority 2013, dated 2017).

Legend:
Format in all cases: biochemical
JAK1 = target: T1, JAK1 (Homo sapiens, UniProt P23458); assay: JAK1 enzyme inhibition test (LANCE method); settings: 1 μM test compound; for inhibition at 1 µM: read-out: JAK1 enzyme inhibitory activity (%, 1 μM)
T1 construct: purchased Invitrogen
Summary of the method: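 Inhibition expressed against no-enzyme wells (100% inhibition), from time-resolved fluorescence at 665 nm after Eu-anti-phosphotyrosine antibody/EDTA detection. Kinase reaction ran 1 h at room temperature, pH 7.5 HEPES buffer, ULight-JAK1 substrate and ATP diluted to 300 nM and 150 μM before addition.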

TYK2 = target: T2, TYK2 (Homo sapiens, UniProt P29597); assay: TYK2 enzyme inhibition test (LANCE method); settings: 1 μM test compound; for inhibition at 1 µM: read-out: TYK2 enzyme inhibitory activity (%, 1 μM)
T2 construct: purchased Invitrogen
Summary of the method: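 TR-FRET (LANCE) readout: after 1 h room-temperature kinase reaction, EDTA plus 4 nM Eu-labelled anti-phosphotyrosine antibody added, signal at 665 nm (340 nm excitation). Reaction combined TYK2, ULight-JAK1 substrate and ATP, prepared at 375 ng/mL, 300 nM and 30 μM before addition, in pH 7.5 HEPES/MgCl2 buffer; enzyme-free wells define full inhibition.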

JAK2 = target: T3, JAK2 (Homo sapiens, UniProt O60674); assay: JAK2 enzyme inhibition test (LANCE method); settings: 1 μM test compound; for inhibition at 1 µM: read-out: JAK2 enzyme inhibitory activity (%, 1 μM)
T3 construct: purchased Invitrogen
Summary of the method: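 TR-FRET (LANCE) read-out, ex 340/em 665 nm with 100 μs delay, after 1 hr room-temperature detection with europium anti-phosphotyrosine antibody and 20 mM EDTA. The preceding 1 hr kinase reaction combined JAK2, ULight-JAK1 substrate and ATP, added as 6 ng/mL, 300 nM and 45 μM solutions; enzyme-free wells defined 100% inhibition.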

JAK3 = target: T4, JAK3 (Homo sapiens, UniProt P52333); assay: JAK3 enzyme inhibition test (LANCE method); settings: 1 μM test compound; for inhibition at 1 µM: read-out: JAK3 enzyme inhibitory activity (%, 1 μM)
T4 construct: purchased Invitrogen
T4 sequence (P52333 1-1124): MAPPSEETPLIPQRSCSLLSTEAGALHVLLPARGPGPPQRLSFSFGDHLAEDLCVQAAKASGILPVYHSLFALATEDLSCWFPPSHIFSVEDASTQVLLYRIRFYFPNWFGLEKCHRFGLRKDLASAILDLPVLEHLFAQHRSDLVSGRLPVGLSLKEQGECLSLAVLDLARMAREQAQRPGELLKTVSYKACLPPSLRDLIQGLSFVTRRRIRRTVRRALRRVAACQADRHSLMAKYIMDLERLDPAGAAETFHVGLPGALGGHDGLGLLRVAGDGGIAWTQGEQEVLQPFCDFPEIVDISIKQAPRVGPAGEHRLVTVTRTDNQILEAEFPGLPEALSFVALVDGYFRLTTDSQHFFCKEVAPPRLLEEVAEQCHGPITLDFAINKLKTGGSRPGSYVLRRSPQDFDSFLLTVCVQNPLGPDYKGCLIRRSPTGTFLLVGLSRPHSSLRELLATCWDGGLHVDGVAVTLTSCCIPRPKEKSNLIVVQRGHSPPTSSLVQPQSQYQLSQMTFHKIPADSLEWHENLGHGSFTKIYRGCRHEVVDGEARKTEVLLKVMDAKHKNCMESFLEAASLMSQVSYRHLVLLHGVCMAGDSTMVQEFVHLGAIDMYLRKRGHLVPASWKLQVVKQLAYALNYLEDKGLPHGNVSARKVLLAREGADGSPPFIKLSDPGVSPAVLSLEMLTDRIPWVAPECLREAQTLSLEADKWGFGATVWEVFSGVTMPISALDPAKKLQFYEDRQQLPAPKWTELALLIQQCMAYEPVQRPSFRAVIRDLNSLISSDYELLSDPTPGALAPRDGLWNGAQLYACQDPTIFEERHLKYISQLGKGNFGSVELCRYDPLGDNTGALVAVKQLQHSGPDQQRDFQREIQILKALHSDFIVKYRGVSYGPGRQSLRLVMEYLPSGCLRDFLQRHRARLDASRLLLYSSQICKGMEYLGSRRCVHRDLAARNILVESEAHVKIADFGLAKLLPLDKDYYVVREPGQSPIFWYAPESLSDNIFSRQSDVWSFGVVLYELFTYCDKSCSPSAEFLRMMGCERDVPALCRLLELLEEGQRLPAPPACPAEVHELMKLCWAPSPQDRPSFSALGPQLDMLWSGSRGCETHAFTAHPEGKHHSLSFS
Summary of the method: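 TR-FRET (LANCE) read: 1 h room-temperature reaction, EDTA quench, Eu-anti-phosphotyrosine antibody, emission 665 nm after 340 nm excitation. Added solutions held 12 ng/mL JAK3, 300 nM ULight-JAK1 substrate and 15 μM ATP (pH 7.5 HEPES). Activity expressed against no-enzyme wells defined as full inhibition.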

T3 sequence (O60674 whole entry): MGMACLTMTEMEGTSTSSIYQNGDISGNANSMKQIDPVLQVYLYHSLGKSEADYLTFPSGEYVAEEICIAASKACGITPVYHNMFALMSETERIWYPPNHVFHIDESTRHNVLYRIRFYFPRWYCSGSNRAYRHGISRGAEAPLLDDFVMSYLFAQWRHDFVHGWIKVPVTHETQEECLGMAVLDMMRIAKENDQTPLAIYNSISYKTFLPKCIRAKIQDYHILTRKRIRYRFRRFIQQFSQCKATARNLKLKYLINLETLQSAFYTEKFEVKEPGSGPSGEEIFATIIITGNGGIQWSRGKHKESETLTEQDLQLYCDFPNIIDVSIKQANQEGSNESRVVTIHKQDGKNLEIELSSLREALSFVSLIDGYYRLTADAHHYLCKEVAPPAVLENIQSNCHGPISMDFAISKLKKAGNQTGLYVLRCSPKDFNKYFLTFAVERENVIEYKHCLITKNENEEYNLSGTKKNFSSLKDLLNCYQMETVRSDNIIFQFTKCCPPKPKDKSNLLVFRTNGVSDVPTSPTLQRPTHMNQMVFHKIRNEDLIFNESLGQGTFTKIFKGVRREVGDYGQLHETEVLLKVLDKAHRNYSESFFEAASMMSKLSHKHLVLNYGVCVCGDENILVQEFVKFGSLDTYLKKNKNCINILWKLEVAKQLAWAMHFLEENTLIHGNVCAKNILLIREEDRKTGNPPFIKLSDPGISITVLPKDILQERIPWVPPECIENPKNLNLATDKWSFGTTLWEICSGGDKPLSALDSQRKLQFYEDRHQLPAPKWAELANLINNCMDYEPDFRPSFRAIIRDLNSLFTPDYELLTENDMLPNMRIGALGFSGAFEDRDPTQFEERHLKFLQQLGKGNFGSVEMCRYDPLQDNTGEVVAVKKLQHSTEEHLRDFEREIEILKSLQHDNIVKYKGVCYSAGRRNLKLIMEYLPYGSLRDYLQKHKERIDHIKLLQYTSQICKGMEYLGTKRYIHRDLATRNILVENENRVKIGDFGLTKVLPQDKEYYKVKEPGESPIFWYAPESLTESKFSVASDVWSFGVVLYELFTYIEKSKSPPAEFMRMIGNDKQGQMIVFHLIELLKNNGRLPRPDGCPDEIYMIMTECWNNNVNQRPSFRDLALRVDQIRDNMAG
T2 sequence (P29597 whole entry): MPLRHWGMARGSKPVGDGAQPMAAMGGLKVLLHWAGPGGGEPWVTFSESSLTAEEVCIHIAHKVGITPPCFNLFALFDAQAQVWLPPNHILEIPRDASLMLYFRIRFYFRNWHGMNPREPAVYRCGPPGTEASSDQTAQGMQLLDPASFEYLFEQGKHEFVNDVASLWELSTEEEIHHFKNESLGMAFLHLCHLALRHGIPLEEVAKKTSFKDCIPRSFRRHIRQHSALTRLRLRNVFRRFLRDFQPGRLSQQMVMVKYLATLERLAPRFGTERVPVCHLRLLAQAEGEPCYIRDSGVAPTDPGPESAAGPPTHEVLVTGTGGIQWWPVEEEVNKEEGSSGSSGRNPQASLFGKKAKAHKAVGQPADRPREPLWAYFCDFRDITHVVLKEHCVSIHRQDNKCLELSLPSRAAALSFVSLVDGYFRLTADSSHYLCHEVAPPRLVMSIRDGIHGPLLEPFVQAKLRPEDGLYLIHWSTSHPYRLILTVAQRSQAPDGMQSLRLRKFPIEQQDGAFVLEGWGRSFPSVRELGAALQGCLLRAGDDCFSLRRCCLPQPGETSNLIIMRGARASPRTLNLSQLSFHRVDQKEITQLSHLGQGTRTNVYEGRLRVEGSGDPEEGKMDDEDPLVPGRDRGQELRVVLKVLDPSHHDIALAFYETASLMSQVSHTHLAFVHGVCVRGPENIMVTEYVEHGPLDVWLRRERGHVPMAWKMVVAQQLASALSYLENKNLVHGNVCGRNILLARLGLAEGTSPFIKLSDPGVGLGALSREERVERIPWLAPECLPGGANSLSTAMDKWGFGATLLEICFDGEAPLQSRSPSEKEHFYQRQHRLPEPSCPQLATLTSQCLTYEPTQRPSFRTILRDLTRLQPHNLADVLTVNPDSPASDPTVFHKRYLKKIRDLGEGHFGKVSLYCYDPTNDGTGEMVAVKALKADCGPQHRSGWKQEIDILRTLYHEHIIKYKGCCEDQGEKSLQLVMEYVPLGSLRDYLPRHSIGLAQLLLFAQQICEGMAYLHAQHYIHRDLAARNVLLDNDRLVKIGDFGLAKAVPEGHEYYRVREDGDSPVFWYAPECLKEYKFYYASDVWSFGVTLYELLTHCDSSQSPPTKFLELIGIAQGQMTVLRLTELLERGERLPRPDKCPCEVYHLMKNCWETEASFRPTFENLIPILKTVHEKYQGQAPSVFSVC
T1 sequence (P23458 whole entry): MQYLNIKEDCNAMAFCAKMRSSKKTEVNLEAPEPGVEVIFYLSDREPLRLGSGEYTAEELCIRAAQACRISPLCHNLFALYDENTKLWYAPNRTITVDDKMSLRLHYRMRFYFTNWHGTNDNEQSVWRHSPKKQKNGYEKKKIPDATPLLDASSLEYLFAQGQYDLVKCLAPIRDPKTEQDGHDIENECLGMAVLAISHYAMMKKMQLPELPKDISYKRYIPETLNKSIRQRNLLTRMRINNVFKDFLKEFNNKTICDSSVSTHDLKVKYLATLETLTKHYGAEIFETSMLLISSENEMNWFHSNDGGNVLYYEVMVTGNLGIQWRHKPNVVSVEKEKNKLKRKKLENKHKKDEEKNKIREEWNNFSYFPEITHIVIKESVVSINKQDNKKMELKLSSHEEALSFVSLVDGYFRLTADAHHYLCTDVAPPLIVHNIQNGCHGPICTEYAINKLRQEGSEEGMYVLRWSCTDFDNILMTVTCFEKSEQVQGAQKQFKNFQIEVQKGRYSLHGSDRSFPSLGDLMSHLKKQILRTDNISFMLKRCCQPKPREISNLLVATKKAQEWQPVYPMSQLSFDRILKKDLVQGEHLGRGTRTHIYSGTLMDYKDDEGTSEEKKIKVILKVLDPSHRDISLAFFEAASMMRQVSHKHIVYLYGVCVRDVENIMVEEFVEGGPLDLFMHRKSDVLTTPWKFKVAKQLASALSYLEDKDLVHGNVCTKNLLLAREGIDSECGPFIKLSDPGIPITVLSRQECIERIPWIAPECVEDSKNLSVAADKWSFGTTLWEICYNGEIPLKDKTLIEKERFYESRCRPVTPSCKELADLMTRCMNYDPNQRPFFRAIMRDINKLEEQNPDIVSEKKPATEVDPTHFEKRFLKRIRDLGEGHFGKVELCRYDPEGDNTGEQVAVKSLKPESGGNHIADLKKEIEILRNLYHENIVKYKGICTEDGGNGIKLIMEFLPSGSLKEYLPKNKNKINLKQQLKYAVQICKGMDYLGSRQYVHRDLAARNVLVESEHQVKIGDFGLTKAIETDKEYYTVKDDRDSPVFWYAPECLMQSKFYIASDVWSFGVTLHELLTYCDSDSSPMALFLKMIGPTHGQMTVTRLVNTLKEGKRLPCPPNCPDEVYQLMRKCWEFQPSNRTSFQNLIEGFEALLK

CC1CCCCC1n1cc(-c2cc(N3CCOCC3)n(C)n2)c2[nH]nc(N)c2c1=O (centres unmarked) [Example 154, 3-amino-5-(2-methylcyclohexyl)-7-(1-methyl-5-(morpholin-4-yl)-1H-pyrazol-3-yl)-1,5-dihydro-4H-pyrazolo[4,3-c]pyridin-4-one]
JAK1 enzyme inhibitory activity (%, 1 μM) (JAK1): 97%
TYK2 enzyme inhibitory activity (%, 1 μM) (TYK2): 102%
JAK2 enzyme inhibitory activity (%, 1 μM) (JAK2): 98%
JAK3 enzyme inhibitory activity (%, 1 μM) (JAK3): 100%

CC1CCCCC1n1cc(-c2cc(N3CCOCC3)n(C)n2)c2[nH]nc(N)c2c1=O (centres unmarked) [Example 155, 3-amino-5-(2-methylcyclohexyl)-7-(1-methyl-5-(morpholin-4-yl)-1H-pyrazol-3-yl)-1,5-dihydro-4H-pyrazolo[4,3-c]pyridin-4-one]
JAK1 enzyme inhibitory activity (%, 1 μM) (JAK1): 76%
TYK2 enzyme inhibitory activity (%, 1 μM) (TYK2): 101%
JAK2 enzyme inhibitory activity (%, 1 μM) (JAK2): 81%
JAK3 enzyme inhibitory activity (%, 1 μM) (JAK3): 98%

CN(C)[C@@H]1CCN(c2cc(-c3cn(C(C4CC4)C4CC4)c(=O)c4c(N)n[nH]c34)nn2C)C1 [Example 156, 3-amino-5-(dicyclopropylmethyl)-7-(5-((3R)-3-(dimethylamino)pyrrolidin-1-yl)-1-methyl-1H-pyrazol-3-yl)-1,5-dihydro-4H-pyrazolo[4,3-c]pyridin-4-one]
inhibition at 1 µM (JAK1): 100%
inhibition at 1 µM (TYK2): 100%
inhibition at 1 µM (JAK2): 99%
inhibition at 1 µM (JAK3): 100%

Cn1nc(-c2cn(C(C3CC3)C3CC3)c(=O)c3c(N)n[nH]c23)cc1N1CCC[C@@H]1CO [Example 157, 3-amino-5-(dicyclopropylmethyl)-7-(5-((2R)-2-(hydroxymethyl)pyrrolidin-1-yl)-1-methyl-1H-pyrazol-3-yl)-1,5-dihydro-4H-pyrazolo[4,3-c]pyridin-4-one]
inhibition at 1 µM (JAK1): 99%
inhibition at 1 µM (TYK2): 101%
inhibition at 1 µM (JAK2): 99%
inhibition at 1 µM (JAK3): 100%

Cn1nc(-c2cn(C(C3CC3)C3CC3)c(=O)c3c(N)n[nH]c23)cc1N1CCC[C@@H]1CN1CCCC1 [Example 158, 3-amino-5-(dicyclopropylmethyl)-7-(1-methyl-5-((2R)-2-(pyrrolidin-1-ylmethyl)pyrrolidin-1-yl)-1H-pyrazol-3-yl)-1,5-dihydro-4H-pyrazolo[4,3-c]pyridin-4-one]
inhibition at 1 µM (JAK1): 92%
inhibition at 1 µM (TYK2): 101%
inhibition at 1 µM (JAK2): 99%
inhibition at 1 µM (JAK3): 100%

COC[C@H]1CCCN1c1cc(-c2cn(C(C3CC3)C3CC3)c(=O)c3c(N)n[nH]c23)nn1C [Example 159, 3-amino-5-(dicyclopropylmethyl)-7-(5-((2R)-2-(methoxymethyl)pyrrolidin-1-yl)-1-methyl-1H-pyrazol-3-yl)-1,5-dihydro-4H-pyrazolo[4,3-c]pyridin-4-one]
inhibition at 1 µM (JAK1): 99%
inhibition at 1 µM (TYK2): 100%
inhibition at 1 µM (JAK2): 99%
inhibition at 1 µM (JAK3): 100%

CN(C)[C@H]1CCN(c2cc(-c3cn(C(C4CC4)C4CC4)c(=O)c4c(N)n[nH]c34)nn2C)C1 [Example 160, 3-amino-5-(dicyclopropylmethyl)-7-(5-((3S)-3-(dimethylamino)pyrrolidin-1-yl)-1-methyl-1H-pyrazol-3-yl)-1,5-dihydro-4H-pyrazolo[4,3-c]pyridin-4-one]
inhibition at 1 µM (JAK1): 99%
inhibition at 1 µM (TYK2): 100%
inhibition at 1 µM (JAK2): 100%
inhibition at 1 µM (JAK3): 100%

Cn1nc(-c2cn(C(C3CC3)C3CC3)c(=O)c3c(N)n[nH]c23)cc1C1CC1 [Example 161, 3-amino-7-(5-cyclopropyl-1-methyl-1H-pyrazol-3-yl)-5-(dicyclopropylmethyl)-1,5-dihydro-4H-pyrazolo[4,3-c]pyridin-4-one]
inhibition at 1 µM (JAK1): 100%
inhibition at 1 µM (TYK2): 100%
inhibition at 1 µM (JAK2): 99%
inhibition at 1 µM (JAK3): 100%
